Results taken from patent US20240409899A1, “PRODUCTION OF HEPATOCYTES” (Cambridge Enterprise Limited (GB/GB), priority 2021, published 2024).

Assays:
[1] = system: FoP-Heps; test: Fatty acid treatment, intracellular lipid accumulation (BODIPY staining) in 3D FoP-Heps; type: cell-based, human; conditions: 0.25 mM conjugated with BSA, 7 days, 3D culture from day 20; 4TF eFoP- and iFoP-Heps; BSA control
Procedure: (§1) Forward programmed cells were embedded in 3D from day 20 and cultured for 7 days in Hepatozyme complete medium supplemented with either BSA (control), or oleic acid (0.25 mM) or palmitic acid (0.25 mM) conjugated with BSA. Intracellular lipid accumulation was detected by incubating cells with 1 μl/ml Bodipy (Thermo scientific) for 30 minutes, followed by DAPI (Hoechst) diluted 1:10.000 in PBS for 30 minutes and imaged on a Zeiss LSM 700 confocal microscope.

[2] = system: FoP-Heps; test: Fatty acid treatment, cell viability (Presto Blue) in 3D FoP-Heps; type: cell-based, human; conditions: 0.25 mM conjugated with BSA, 7 days, 3D culture from day 20; 4TF FoP-Heps; normalised against BSA control
Procedure: as §1
(§2) Cell viability was determined by incubating cells with 1:10 Presto Blue reagent (Invitrogen) in Hepatozyme complete medium at 37° C. for 4 hours. Fluorescence was measured using the EnVision plate reader with an excitation emission of 560 nm/590 nm.

[3] = system: FoP-Heps; test: APAP toxicity, cell viability (Presto Blue) in 3D FoP-Heps; type: cell-based, human; conditions: 25 mM for 48 h (day 18 to day 20), 3D cultures; 4TF FoP-Heps; normalised against untreated
Procedure: The hepatotoxicity of acetaminophen (APAP) was tested by incubating forward programmed cells cultured in 3D from day 15 in Hepatozyme complete medium supplemented with 25 mM acetaminophen (R&D) for 48 h hours (day 18 to day 20) after which cell viability was determined.
as §2

[4] = system: FoP-Heps; test: CYP3A4 activity (P450 Glo) in FoP-Heps treated with exogenous nuclear receptor ligands; conditions: for effect on CYP3A4 activity: vs untreated control, FoP-Heps with 3TFs plus the ligand's nuclear receptor (AR for testosterone, RORc for desmosterol)
Procedure: hPSCs were dissociated into single cells following incubation with StemPro Accutase (Thermo Fisher) for 5 minutes at 37° C. and seeded at a density of 40-50.000 cells/cm2 in E8 medium supplemented with 10 μM ROCK Inhibitor Y-27632 (Selleckchem). E8 medium was replenished the following day. Following 48 h, initial induction of the transgenes was achieved by incubation in E6 medium (E8 without growth factors) supplemented with […] doxycycline (dox) for 24 h. Cells were then maintained in Hepatozyme complete medium supplemented with […] dox for the remaining duration of the protocol. Medium was replenished every day for the next 4 days, and every other day here after. For specific experiments, cell lines were treated with 100 nM of desmosterol, testosterone or […] (E2) from day 2 of forward programming. All ligands were purchased from Sigma-Aldrich and reconstituted in ethanol. For 3D cultures, forward programmed cells were embedded in Matrigel Growth Factor Reduced Basement Membrane Matrix, Phenol Red-free (Corning) at day 15 or day 20 and cultured for 5 days or 10 days, respectively. Cells were dissociated with Hank's based cell dissociation buffer (Gibco) for 20 minutes at 37° C., resuspended in Matrigel and seeded in 40-50 μL domes in Hepatozyme complete medium supplemented with […] dox.
Measurement of CYP3A4 enzymatic activity was performed using the P450 Glo kit (Promega). Cells were incubate with 1:1000 luciferin-IPA in Hepatozyme complete for 1 h at 37° C. Supernatant was mixed with detection reagent in a 1:1 ratio and incubated at RT for 20 minutes in Greiner white 96 well microplates (Sigma Aldrich). Luminescence was measured in triplicate on a GloMax plate reader. Hepatozyme complete medium was used as background control. Relative light units were normalised for background, volume and average total number of cells obtained after differentiation.

[5] = 100 nM ligand from day 2, day 20 of forward programming

CCCCCCCC/C=C\CCCCCCCC(=O)O [OA, oleic acid]
accumulation of lipids (BODIPY staining) [1]: strong accumulation of lipids

CCCCCCCCCCCCCCCC(=O)O [PA, palmitic acid]
cell viability (lipotoxicity) [2]: reduction in cell viability

CC(=O)Nc1ccc(O)cc1 [acetaminophen]
reduction in cell viability [3]: 50%

CC(C)=CCC[C@@H](C)[C@H]1CC[C@H]2[C@@H]3CC=C4C[C@@H](O)CC[C@]4(C)[C@H]3CC[C@]12C [desmosterol]
effect on CYP3A4 activity [4, 5]: no effect

C[C@]12CC[C@H]3[C@@H](CCC4=CC(=O)CC[C@@]43C)[C@@H]1CC[C@@H]2O [testosterone]
effect on CYP3A4 activity [4, 5]: significantly decreased

β-estradiol [p3-estradiol]
increase in CYP3A4 activity ([4]; 100 nM ligand from day 2, day 20 of forward programming, normalised to untreated control, FoP-Heps with 3TFs plus the ligand's nuclear receptor (ERα)): 3 fold | increase in CYP3A4 activity in 3TFs FoP-Heps ([4]; 3TFs FoP-Heps without overexpressed nuclear receptor, 100 nM ligand): not observed
